Assay results as given in patent US9877923B2, “Process for preparing therapeutic nanoparticles” (Pfizer Inc., priority 2012, dated 2018).
Converted amounts (≈) assume the structure as drawn.

How the values were obtained:
[1] = Drug recovery during in vitro release experiments; type: physicochemical; details: after 4 hr incubation at 37° C.
Excerpt: Release data of 24 hr and 48 hr, in Table 4, are underlined because the drug recovered at these two time points show significant degradation (data are shown in the bottom of the table in the Drug Recovery section).

[2] = Dasatinib solubility in selected solvents with or without acid doping (by HPLC); details: organic solvent or mixture

stability of dasatinib during incubation [1]: degradation of dasatinib is observed
solubility ([2]; 1% TFA in benzyl alcohol): 56.5 mg/mL (≈ 116 mM)
solubility ([2]; 2% TFA in benzyl alcohol): 103 mg/mL (≈ 211 mM)
solubility ([2]; 3% TFA in 7.5% water in benzyl alcohol): 157 mg/mL (≈ 322 mM)
solubility ([2]; 3% TFA in benzyl alcohol): 141 mg/mL (≈ 289 mM)
solubility ([2]; 7.5% water in benzyl alcohol): 32.8 mg/mL (≈ 67.1 mM)
SMILES: Cc1nc(Nc2ncc(C(=O)Nc3c(C)cccc3Cl)s2)cc(N2CCN(CCO)CC2)n1 [Dasatinib, dasatinib]
